# Data reported in ChEMBL document CHEMBL1255445, “Evaluation of nucleoside hydrolase inhibitors for treatment of African trypanosomiasis” (Antimicrob Agents Chemother, 2010).
# Active and inactive are the calls of the source. No rule for the calls is given here.
# Columns and labels:
# [1] = test system: Plasmodium falciparum; experiment: Antiparasitic activity against chloroquine-sensitive Plasmodium falciparum Ghana assessed as reduction in parasite growth after 3 days by fluorimetry; type: functional, organism-based
# [2] = test system: Trypanosoma cruzi; experiment: Antitrypanosomal activity against Trypanosoma cruzi Tulahuen CL2 s-galactosidase strain assessed as reduction in parasite growth after 3 days by fluorometrically; type: functional, organism-based
# [3] = test system: Leishmania infantum; experiment: Antileishmanial activity against Leishmania infantum MHOM/MA/67/ITMAP263 intracellular amastigotes assessed as reduction in parasite growth after 3 days by fluorometrically; type: functional, organism-based
# [4] = test system: Trypanosoma brucei brucei; experiment: Antitrypanosomal activity against suramin sensitive Trypanosoma brucei brucei Lister 427 assessed as reduction in parasite growth after 3 days by fluorometrically; type: functional, organism-based; conditions: Lister 427, 72 h
# [5] = Inhibition of Trypanosoma vivax Inosine-adenosine-guanosine-nucleoside hydrolase
# [6] = Inhibition of human purine nucleoside phosphorylase
# [7] = Cytotoxicity against human MRC5 SV2 cells after 48 hrs; type: cell-based; conditions: MRC5, 48 h
# [8] = Inhibition of Trypanosoma brucei brucei inosine-adenosine-guanosine nucleoside hydrolase (IAG-NH)
# [9] = Inhibition of Trypanosoma brucei brucei Inosine guanosine nucleoside hydrolase
SMILES,IC50 [4] [µM],Ki [5] [µM],Ki [6] [µM],Ki [8] [µM],Ki [9] [µM],Activity [1],Activity [2],Activity [3],IC50 [7] [µM]
COc1cccc2c(CN3C[C@H](O)[C@H](O)[C@H]3CO)c[nH]c12,> 64,2.3,> 400,–,–,inactive,inactive,inactive,–
O=c1[nH]cnc2c([C@@H]3N[C@H](CO)[C@@H](O)[C@H]3O)c[nH]c12 [FORODESINE],> 64,0.0062,–,0.024,0.009,inactive,inactive,inactive,> 64
OC[C@@H]1[C@@H](O)[C@@H](O)CN1Cc1cccc2cncnc12,> 64,0.058,> 1000,–,–,inactive,inactive,inactive,> 64
Nc1ncnc2c(CN3C[C@H](O)[C@H](O)[C@H]3CO)cccc12,> 64,0.015,> 1000,–,–,inactive,inactive,inactive,–
OC[C@@H]1[C@@H](O)[C@@H](O)CN1Cc1c[nH]c2ccccc12,> 64,12,> 800,–,–,inactive,inactive,inactive,–
OC[C@@H]1[C@@H](O)[C@@H](O)CN1Cc1csc2cncnc12,> 64,0.042,> 1000,–,–,inactive,inactive,inactive,–
O=c1cc[nH]c2c(CN3C[C@H](O)[C@H](O)[C@H]3CO)cccc12,> 64,13.1,> 500,–,–,inactive,inactive,inactive,–
OC[C@@H]1[C@@H](O)[C@@H](O)CN1Cc1ccc2cccnc2c1,> 64,0.72,–,–,–,inactive,inactive,inactive,–

# Further lines, with some results ahead:
IC50 [4] [µM],Ki [5] [µM],Ki [6] [µM],Ki [8] [µM],Ki [9] [µM],SMILES,Activity [1],Activity [2],Activity [3],IC50 [7] [µM]
> 64,0.05,> 1000,–,–,Nc1ccnc2c(CN3C[C@H](O)[C@H](O)[C@H]3CO)cccc12,inactive,inactive,inactive,–
> 64,0.11,> 1000,–,–,O=c1[nH]cnc2c(CN3C[C@H](O)[C@H](O)[C@H]3CO)cccc12,inactive,inactive,inactive,–
> 64,0.14,> 1000,–,–,OC[C@@H]1[C@@H](O)[C@@H](O)CN1Cc1cccc2nccnc12,inactive,inactive,inactive,–
> 64,0.0062,> 10,0.0009,0.0044,Nc1ncnc2c(C3N[C@H](CO)[C@@H](O)[C@H]3O)c[nH]c12 (some centres undefined) [IMMUCILLIN A],inactive,inactive,inactive,> 64
> 64,0.029,> 1000,–,–,COc1ccnc2c(CN3C[C@H](O)[C@H](O)[C@H]3CO)cccc12,inactive,inactive,inactive,> 64
> 64,0.011,> 1000,0.446,11,OC[C@@H]1[C@@H](O)[C@@H](O)CN1Cc1cccc2cccnc12,inactive,inactive,inactive,> 64
29,0.31,–,–,–,OC[C@@H]1[C@@H](O)[C@@H](O)CN1Cc1cccc2ccc(Cl)nc12,inactive,inactive,inactive,–
25,0.014,> 1000,–,–,OC[C@@H]1[C@@H](O)[C@@H](O)CN1Cc1cccc2c(Cl)ccnc12,inactive,inactive,inactive,–
